Laboratory results reported in patent US6555821B1, “Method for analysis of expired gas” (priority 1999, dated 2003).
Several values for one entry are separate records, joined by “and”; a condition that tells them apart may be missing. Identical values can stand only once.

Experiments:
[1] = Bubbling tests: alcohol concentration in gas phase over alcohol-water solution, measured by low resolution FT-IR; format: physicochemical; conditions: for Concentration of ethanol in gas phase / Concentration of methanol in gas phase: 21.0 ± 1.0° C., 1 atm, mean ± SD of 10 spectra
[2] = as above; format: physicochemical; conditions: for Concentration of methanol in gas phase: 21.0 ± 1.0° C., 1 atm, mean ± SD of 10 spectra
Protocol: Vaporous ethanol and methanol mixtures in water were made by bubbling nitrogen gas through a corresponding liquid mixture. The purpose of measuring mixtures of ethanol and methanol was to test the applicability of the instrument for determining more than one alcohol in a gas mixture containing a large amount of water vapor like human exhaled breath. Particularly, the measurements were performed with a large ethanol:methanol ratio in order to investigate whether the instrument is able to determine a low concentration of methanol in the presence of a large amount of ethanol.

[3] = 25° C., 1 atm; Hine and Mookerjee 1975, Davidovits et al. 1995; cited from earlier work

For `CCO` [ethanol], the “Concentration of ethanol in gas phase” value ([1]; 3.17 W-% ethanol in water with methanol in liquid 0.102 w-%) was 295 ± 2 ppm, the “Concentration of ethanol in gas phase” value ([1]; 3.17 W-% ethanol in water with methanol in liquid 0.159 w-%) was 314 ± 4 ppm and the “Concentration of ethanol in gas phase” value ([1]; 3.17 W-% ethanol in water with methanol in liquid 0.222 w-%) was 298 ± 3 ppm. For the same molecule, the “Concentration of ethanol in gas phase” value ([1]; 3.17 W-% ethanol in water with methanol in liquid 0.317 w-%) was 304 ± 2 ppm, the “Concentration of ethanol in gas phase” value ([1]; 3.17 W-% ethanol in water with methanol in liquid 0.95 w-%) was 296 ± 4 ppm and the “Concentration of ethanol in gas phase” value ([1]; 3.17 W-% ethanol in water with methanol in liquid 1.59 w-%) was 303 ± 5 ppm. For the same molecule, the “Concentration of ethanol in gas phase” value ([1]; 3.17 W-% ethanol in water with methanol in liquid 3.18 w-%) was 300 ± 2 ppm, the “Concentration of ethanol in gas phase” value ([1]; 3.17 W-% ethanol in water with methanol in liquid 6.36 w-%) was 293 ± 3 ppm and the “Concentration of ethanol in gas phase” value ([1]; 3.17 W-% ethanol in water with methanol in liquid 15.9 w-%) was 289 ± 1 ppm. The “ethanol in the gas phase (FIG. 1 spectrum)” value ([1]; 3.17 w-‰ ethanol and 0.159 w-‰ methanol in liquid phase (water), 21±1° C.) was 310 ppm, the “Concentration of ethanol in gas phase” value ([1]; ethanol in liquid 0.202 w-%, water) was 19.2 ± 0.1 ppm and the “Concentration of ethanol in gas phase” value ([1]; ethanol in liquid 0.5 w-%, water) was 45.7 ± 0.3 ppm. For the same molecule, the “Concentration of ethanol in gas phase” value ([1]; ethanol in liquid 1 w-%, water) was 94 ± 1 ppm, the “Concentration of ethanol in gas phase” value ([1]; ethanol in liquid 1.58 w-%, water) was 148 ± 2 ppm and the “Concentration of ethanol in gas phase” value ([1]; ethanol in liquid 3.16 w-%, water) was 305 ± 4 ppm. The “Concentration of ethanol in gas phase” value ([1]; ethanol in liquid 6.33 w-%, water) was 587 ± 4 ppm, the “Concentration of ethanol in gas phase” value ([1]; ethanol in liquid 9.49 w-%, water) was 907 ± 6 ppm and the “Concentration of ethanol in gas phase” value ([1]; ethanol in liquid 15.8 w-%, water) was 1466 ± 11 ppm. For the same molecule, the “Concentration of ethanol in gas phase” value ([1]; ethanol in liquid 31.6 w-%, water) was 2907 ± 4 ppm.
For `CO` [methanol], the “methanol in the gas phase (FIG. 1 spectrum)” value ([2]; 0.159 w-‰ methanol and 3.17 w-‰ ethanol in liquid phase (water), 21±1° C.) was 22.4 ppm, the “Concentration of methanol in gas phase” value ([2]; methanol in liquid 0.222 w-% in mixture of water and 3.17 W-% ethanol) was 30.2 ± 0.5 ppm and the “Concentration of methanol in gas phase” value ([2]; methanol in liquid 0.95 w-% in mixture of water and 3.17 W-% ethanol) was 120 ± 2 ppm. For the same molecule, the “Concentration of methanol in gas phase” value ([2]; methanol in liquid 1.59 w-% in mixture of water and 3.17 W-% ethanol) was 201 ± 3 ppm, the “Concentration of methanol in gas phase” value ([2]; methanol in liquid 3.18 w-% in mixture of water and 3.17 W-% ethanol) was 402 ± 2 ppm and the “Concentration of methanol in gas phase” value ([2]; methanol in liquid 6.36 w-% in mixture of water and 3.17 W-% ethanol) was 806 ± 7 ppm. For the same molecule, the “Concentration of methanol in gas phase” value ([1]; methanol in liquid 0.101 w-%, water) was 13 ± 0.2 ppm, the “Concentration of methanol in gas phase” value ([1]; methanol in liquid 0.102 w-% in mixture of water and 3.17 W-% ethanol) was 14.2 ± 0.4 ppm and the “Concentration of methanol in gas phase” value ([1]; methanol in liquid 0.159 w-% in mixture of water and 3.17 W-% ethanol) was 22.2 ± 0.4 ppm. For the same molecule, the “Concentration of methanol in gas phase” value ([1]; methanol in liquid 0.203 w-%, water) was 26.9 ± 0.1 ppm, the “Concentration of methanol in gas phase” value ([1]; methanol in liquid 0.301 w-%, water) was 41.6 ± 0.3 ppm and the “Concentration of methanol in gas phase” value ([1]; methanol in liquid 0.317 w-% in mixture of water and 3.17 W-% ethanol) was 43.4 ± 0.4 ppm. For the same molecule, the “Concentration of methanol in gas phase” value ([1]; methanol in liquid 0.501 w-%, water) was 61 ± 1 ppm, the “Concentration of methanol in gas phase” value ([1]; methanol in liquid 1.59 w-%, water) was 204 ± 2 ppm and the “Concentration of methanol in gas phase” value ([1]; methanol in liquid 3.17 w-%, water) was 402 ± 2 ppm. For the same molecule, the “Concentration of methanol in gas phase” value ([1]; methanol in liquid 6.34 w-%, water) was 805 ± 4 ppm, the “Concentration of methanol in gas phase” value ([1]; methanol in liquid 9.51 w-%, water) was 1207 ± 5 ppm and the “Concentration of methanol in gas phase” value ([1]; methanol in liquid 15.9 w-% in mixture of water and 3.17 W-% ethanol) was 2006 ± 3 ppm. The “Concentration of methanol in gas phase” value ([1]; methanol in liquid 15.9 w-%, water) was 2031 ± 14 ppm, the “Concentration of methanol in gas phase” value ([1]; methanol in liquid 31.7 w-%, water) was 4067 ± 28 ppm and the “water-air partition coefficient (literature Henry's law constants)” value [3] was 5260 and 5334.
